Test results published in patent US11505533B2, “Metabolically stable N-acylaminooxadiazoles useful as antibacterial agents” (MICROBIOTIX, INC., priority 2017, dated 2022).
≈ marks a conversion by molar mass, not a printed value. Entries after “also recorded” stand apart in the source; their conditions may differ. Read-outs that look alike come from different tables or passages of the source.

Experiments:
trans-translation = conditions: dose response assay; Ramadoss et al., PNAS 2013; cited from earlier work
mammalian systems = conditions: even in the context of prolonged exposure; cited from earlier work
translation = conditions: specific inhibitor of trans-translation; cited from earlier work
[1] = Preliminary PK studies in mice; conditions: IV or IP dosing at 10 mg/kg, data not shown
[2] = Stability in liver microsomes in vitro; conditions: mouse or human liver microsomes in vitro; data not shown
[3] = system: S. aureus (MRSA-1234547263, Cip-res); assay type: cell-based; conditions: Staphylococcus aureus
MRSA-1094 (MDR) = assay type: cell-based; conditions: Staphylococcus aureus
[4] = system: S. aureus (ATCC 35556, spec, kan-res); assay type: cell-based; conditions: Staphylococcus aureus, ATCC35556
[5] = system: S. aureus NRS-77 (spec-res); assay type: cell-based; conditions: Staphylococcus aureus, NRS77
[6] = system: S. aureus WTBF-19 (MSSA. osteomyelitis isolate); assay type: cell-based; conditions: Staphylococcus aureus
[7] = system: S. aureus ATCC 25923 (MSSA. osteomyelitis isolate); assay type: cell-based; conditions: Staphylococcus aureus
MRSA USA 300 (BAA-1717) = assay type: cell-based; conditions: Staphylococcus aureus
MRSA N315 NRS-70 = assay type: cell-based; conditions: Staphylococcus aureus
S. pneumoniae 49619 = assay type: cell-based; conditions: Streptococcus pneumoniae
M. pneumoniae 15531 = assay type: cell-based; conditions: Mycoplasmoides pneumoniae
B. anthracis = assay: microbe, parasite or virus in culture; assay type: cell-based; conditions: Bacillus anthracis
[8] = system: E. coli (700, TolC+) efflux pos; assay type: cell-based; conditions: Escherichia coli
N. gonorrhoeae 49226 = assay type: cell-based; conditions: Neisseria gonorrhoeae
[9] = system: N. gonorrhoeae H041 (MDR including AZM and CTX); assay type: cell-based; conditions: Neisseria gonorrhoeae
Yersinia pestis = assay: microbe, parasite or virus in culture; assay type: cell-based
Brucella suis = assay: microbe, parasite or virus in culture; assay type: cell-based
[10] = system: Franciscella tularensis (Schu13); assay: organism not typed; assay type: cell-based
[11] = system: Moraxella catarrhalis 8176; assay type: cell-based
[12] = system: Legionella pneumophila 33153; assay: microbe, parasite or virus in culture; assay type: cell-based
[13] = system: Haemophilus influenza 35056; assay type: cell-based
N. gonorrhoeae = assay: MIC90 determination, clinical isolates; assay type: cell-based; conditions: Neisseria gonorrhoeae
Franciscella tularensis = assay: organism not typed; assay type: cell-based
E. coli TolC(−) [14] = assay: TolC(−) MIC (NB); assay type: cell-based; conditions: Escherichia coli, read-out: TolC(−) MIC (μM)(NB)
Caco-2 permeability = assay type: in vitro ADME; conditions: human, direction not given
Text: Res., 15(5): 726-733 (1998).

E. coli TolC(−) [15] = conditions: MIC in the presence of 10% fetal calf serum versus without
Mouse serum stability = conditions: 5 μM, 37° C., 4 h
[16] = Mammalian cell cytotoxicity
[17] = Microsomal stability + NADPH; conditions: mouse liver microsomes, 0.5 hr at 37° C.
[18] = Aqueous solubility, nephelometry; conditions: water, kinetic from dmso stock
[19] = Mouse serum binding, equilibrium dialysis
[20] = S. aureus NRS-77 (spec-res), read-out: MIC
[21] = MRSA USA 300 (BAA-1717), read-out: MIC
[22] = MRSA N315 NRS-70, read-out: MIC
[23] = S. pneumoniae 49619, read-out: MIC
[24] = M. pneumoniae 15531, read-out: MIC
[25] = E. coli (700, TolC+) efflux pos, read-out: MIC
[26] = N. gonorrhoeae 49226, read-out: MIC
[27] = Haemophilus influenza 35056, read-out: MIC

Row | SMILES | MIC ([3]; MRSA) | MIC (MRSA-1094 (MDR); MRSA) | MIC [4] | MIC ([6]; MSSA) | MIC [7] | MIC [10] | MIC [12] | MIC90 (Franciscella tularensis) | MIC (E. coli TolC(−) [14]) | Papp (Caco-2 permeability) | Serum Stability (% remain) (Mouse serum stability) | CC50 [16] | Microsomal Stability + NADPH % degraded [17] | solubility [18] | MIC [5, 20] | MIC (MRSA USA 300 (BAA-1717); [21]) | MIC (MRSA N315 NRS-70; [22]) | MIC (S. pneumoniae 49619; [23]) | MIC (M. pneumoniae 15531; [24]) | MIC [8, 25] | other results
1 | O=C(Nc1nnc(-c2ccc(F)cc2)o1)c1ccc(Cl)cc1 [KKL-35] | – | – | – | – | – | – | – | – | – | – | – | – | – | – | – | – | – | – | – | – | IC50 (trans-translation): 0.9 µM; cytotoxicity (mammalian systems): lack of cytotoxicity; effect on translation (translation): no effect on translation; bioavailability in mice [1]: extremely poor bioavailability; also recorded: undetectable in mouse serum at 6 h; stability in the presence of liver microsomes [2]: poor microsomal stability; also recorded: no detectable material after 5 min
2 | O=C(Nc1nnc(-c2ccc(F)cc2)o1)N1CCc2ccccc2C1 [compound 4132, N-[5-(4-fluorophenyl)-1,3,4-oxadiazol-2-yl]-3,4-dihydroisoquinoline-2(1H)-carboxamide] | 3.17 µg/mL (≈ 9.37 µM) | 3.17 µg/mL (≈ 9.37 µM) | 4.23 µg/mL (≈ 12.5 µM) | 4.23 µg/mL (≈ 12.5 µM) | 6.34 µg/mL (≈ 18.7 µM) | 0.13 µg/mL (≈ 0.384 µM) | 8.46 µg/mL (≈ 25 µM) | 0.13 µg/mL (≈ 0.384 µM) | 7.87 µM (≈ 2.66 µg/mL) | 65.8 ×10⁻⁶ cm/s | >95% | 27.2 µM | 27% | 6.25 µM (≈ 2.11 µg/mL) | – | – | – | – | – | – | MIC [5]: 3.17 µg/mL (≈ 9.37 µM); MIC (MRSA USA 300 (BAA-1717)): 1.06 µg/mL (≈ 3.13 µM); MIC (MRSA N315 NRS-70): 6.34 µg/mL (≈ 18.7 µM); MIC (S. pneumoniae 49619; 49619): 33.8 µg/mL (≈ 99.9 µM); MIC (M. pneumoniae 15531; 15531): > 33.8 µg/mL; MIC (B. anthracis): 4.06 µg/mL (≈ 12 µM); MIC [8]: > 35 µg/mL; MIC (N. gonorrhoeae 49226; 49226): 0.18 µg/mL (≈ 0.532 µM); MIC [9]: 0.13 µg/mL (≈ 0.384 µM); MIC (Yersinia pestis): 8.46 µg/mL (≈ 25 µM); MIC (Brucella suis): 4.23 µg/mL (≈ 12.5 µM); MIC [11]: 0.034 µg/mL (≈ 0.1 µM); MIC ([13]; Haemophilus, 35056): 16.9 µg/mL (≈ 50 µM); MIC90 (N. gonorrhoeae): 0.54 µg/mL (≈ 1.6 µM); Fold Serum Shift vs. TolC(−) (E. coli TolC(−) [15]): 12.7 fold
3 | O=C(Nc1nnc(-c2ccc(F)cc2)o1)c1ccc(Oc2ccccc2)nc1 [compound 4237, 2-(6-phenoxynicotinamido)-5-(4-fluorophenyl)-1,3,4-oxadiazole] | 2.35 µg/mL (≈ 6.24 µM) | 2.35 µg/mL (≈ 6.24 µM) | 2.35 µg/mL (≈ 6.24 µM) | 2.35 µg/mL (≈ 6.24 µM) | 2.35 µg/mL (≈ 6.24 µM) | 0.75 µg/mL (≈ 1.99 µM) | 0.87 µg/mL (≈ 2.31 µM) | 1.51 µg/mL (≈ 4.01 µM) | 1.56 µM (≈ 0.588 µg/mL) | 12.7 ×10⁻⁶ cm/s | >95% | > 100 µM | 9% | 6.25 µM (≈ 2.35 µg/mL) | 2.96 µg/mL (≈ 7.87 µM) | 2.1 µg/mL (≈ 5.58 µM) | 4.7 µg/mL (≈ 12.5 µM) | 4.7 µg/mL (≈ 12.5 µM) | 18.8 µg/mL (≈ 50 µM) | > 39 µg/mL | MIC (N. gonorrhoeae 49226; [26]): 0.75 µg/mL (≈ 1.99 µM); MIC ([11]; read-out: MIC): 0.06 µg/mL (≈ 0.159 µM); MIC [13, 27]: 9.41 µg/mL (≈ 25 µM); fraction unbound [19]: 0.002
4 | O=C(Nc1nnc(-c2ccc(F)cc2)o1)c1ccc(OC2CCCCC2)cc1 [compound 4292] | – | – | 0.95 µg/mL (≈ 2.49 µM) | – | – | – | 0.61 µg/mL (≈ 1.6 µM) | – | 1.1 µM (≈ 0.421 µg/mL) | 1 ×10⁻⁶ cm/s | 82% | 23.7 µM | 20% | 6.25 µM (≈ 2.38 µg/mL) | 1.17 µg/mL (≈ 3.07 µM) | 0.3 µg/mL (≈ 0.787 µM) | 1.36 µg/mL (≈ 3.57 µM) | 4.77 µg/mL (≈ 12.5 µM) | 19.1 µg/mL (≈ 50.1 µM) | > 39 µg/mL | MIC ([3]; S. aureus (MRSA-1234547263, Cip-res), read-out: MIC): 0.67 µg/mL (≈ 1.76 µM); MIC (MRSA-1094 (MDR); MRSA-1094 (MDR), read-out: MIC): 0.75 µg/mL (≈ 1.97 µM); MIC ([6]; S. aureus WTBF-19 (MSSA), read-out: MIC): 1.19 µg/mL (≈ 3.12 µM); MIC ([7]; S. aureus ATCC 25923 (MSSA), read-out: MIC): 1.23 µg/mL (≈ 3.22 µM); MIC (N. gonorrhoeae 49226; [26]): 0.1 µg/mL (≈ 0.262 µM); MIC ([11]; read-out: MIC): < 0.02 µg/mL; MIC [13, 27]: > 39 µg/mL; fraction unbound [19]: < 0.01
